Source: ChEMBL document CHEMBL4823299, “Design, synthesis, and biological evaluation of N-(4-substituted)-3-phenylisoxazolo[5,4-d]pyrimidin-4-amine derivatives as apoptosis-inducing cytotoxic agents” (Bioorg Med Chem Lett, 2021)
Calls of active or inactive are those of the source. The calls are words filed in the database; no cut-off is given here.

Legend:
[1] = system: Panel NCI-60 (60 carcinoma cell lines); assay: Cytotoxicity against human NCI60 cells by SRB assay; type: functional, cell-based
BT-474 [2] = assay: Cytotoxicity against human BT-474 cells assessed as cell growth inhibition by MTT assay; type: functional, cell-based
BT-474 [3] = assay: Induction of apoptosis in human BT-474 cells assessed as reduced number of viable cells at 0.25 to 1 uM by phase-contrast microscopy; type: functional, cell-based; conditions: dose 0.25-1 µM
BT-474 [4] = assay: Induction of apoptosis in human BT-474 cells assessed as […] at 0.25 to 1 uM by phase-contrast microscopy; type: functional, cell-based; conditions: dose 0.25-1 µM
BT-474 [5] = assay: Induction of apoptosis in human BT-474 cells assessed as cell shrinkage at 0.25 to 1 uM by phase-contrast microscopy; type: functional, cell-based; conditions: dose 0.25-1 µM
BT-474 [6] = assay: Induction of apoptosis in human BT-474 cells assessed as cellular morphological changes at 0.25 to 1 uM incubated for 24 hrs by AO/EB staining assay; type: functional, cell-based; conditions: dose 0.25-1 µM
BT-474 [7] = assay: Induction of apoptosis in human BT-474 cells assessed as horseshoe-shaped nuclei by measuring bright clue colour at 0.25 to 1 uM incubated for 24 hrs by DAPI staining based fluorescence microscope assay; type: functional, cell-based; conditions: dose 0.25-1 µM
BT-474 [8] = assay: Induction of apoptosis in human BT-474 cells assessed as nuclear shrinkage by measuring bright clue colour at 0.25 to 1 uM incubated for 24 hrs by DAPI staining based fluorescence microscope assay; type: functional, cell-based; conditions: dose 0.25-1 µM
BT-474 [9] = assay: Induction of apoptosis in human BT-474 cells assessed as fragmented nucleus by measuring bright clue colour at 0.25 to 1 uM incubated for 24 hrs by DAPI staining based fluorescence microscope assay; type: functional, cell-based; conditions: dose 0.25-1 µM
BT-474 [10] = assay: Induction of apoptosis in human BT-474 cells assessed as pyknotic and chromatin condensation by measuring bright clue colour at 0.25 to 1 uM incubated for 24 hrs by DAPI staining based fluorescence microscope assay; type: functional, cell-based; conditions: dose 0.25-1 µM
BT-474 [11] = assay: Inhibition of colony formation in human BT-474 cells by clonogenic assay; type: functional, cell-based
BT-474 [12] = assay: Induction of apoptosis in human BT-474 cells assessed as viable cells at 0.5 uM incubated for 24 hrs by annexin-V/FITC-PI staining assay (reference value: 88.49%); type: functional; conditions: read-out: Activity
BT-474 [13] = assay: Induction of apoptosis in human BT-474 cells assessed as early apoptotic cells at 0.5 uM incubated for 24 hrs by annexin-V/FITC-PI staining assay (reference value: 9.44%); type: functional
BT-474 [14] = assay: Induction of apoptosis in human BT-474 cells assessed as late apoptotic cells at 0.5 uM incubated for 24 hrs by annexin-V/FITC-PI staining assay (reference value: 1.83%); type: functional
BT-474 [15] = assay: Induction of apoptosis in human BT-474 cells assessed as necrotic cells at 0.5 uM incubated for 24 hrs by annexin-V/FITC-PI staining assay (reference value: 0.24%); type: functional
BT-474 [16] = assay: Induction of apoptosis in human BT-474 cells assessed as viable cells at 1 uM incubated for 24 hrs by annexin-V/FITC-PI staining assay (reference value: 88.49%); type: functional; conditions: read-out: Activity
BT-474 [17] = assay: Induction of apoptosis in human BT-474 cells assessed as early apoptotic cells at 1 uM incubated for 24 hrs by annexin-V/FITC-PI staining assay (reference value: 9.44%); type: functional
BT-474 [18] = assay: Induction of apoptosis in human BT-474 cells assessed as late apoptotic cells at 1 uM incubated for 24 hrs by annexin-V/FITC-PI staining assay (reference value: 1.83%); type: functional
BT-474 [19] = assay: Induction of apoptosis in human BT-474 cells assessed as necrotic cells at 1 uM incubated for 24 hrs by annexin-V/FITC-PI staining assay (reference value: 0.24%); type: functional
BT-474 [20] = assay: Induction of mitochondrial membrane potential loss in human BT-474 cells assessed as polarised cells at 0.25 uM incubated for 24 hrs by […] staining based assay (reference value: 93.95%); type: functional
BT-474 [21] = assay: Induction of mitochondrial membrane potential loss in human BT-474 cells assessed as polarised cells at 0.5 uM incubated for 24 hrs by […] staining based assay (reference value: 93.95%); type: functional
BT-474 [22] = assay: Induction of mitochondrial membrane potential loss in human BT-474 cells assessed as polarised cells at 1 uM incubated for 24 hrs by […] staining based assay (reference value: 93.95%); type: functional
BT-474 [23] = assay: Induction of mitochondrial membrane potential loss in human BT-474 cells assessed as depolarised cells at 0.25 uM incubated for 24 hrs by […] staining based assay (reference value: 4.18%); type: functional
BT-474 [24] = assay: Induction of mitochondrial membrane potential loss in human BT-474 cells assessed as depolarised cells at 0.5 uM incubated for 24 hrs by […] staining based assay (reference value: 4.18%); type: functional
BT-474 [25] = assay: Induction of mitochondrial membrane potential loss in human BT-474 cells assessed as depolarised cells at 1 uM incubated for 24 hrs by […] staining based assay (reference value: 4.18%); type: functional
K562 [26] = assay: Growth inhibition of human K562 cells; type: functional
RPMI-8226 [27] = assay: Growth inhibition of human RPMI-8226 cells; type: functional
SR [28] = assay: Growth inhibition of human SR cells; type: functional
NCI-H460 [29] = assay: Growth inhibition of human NCI-H460 cells; type: functional
HCT-116 [30] = assay: Growth inhibition of human HCT-116 cells; type: functional
HT-29 [31] = assay: Growth inhibition of human HT-29 cells; type: functional
KM12 [32] = assay: Growth inhibition of human KM12 cells; type: functional
SNB-75 [33] = assay: Growth inhibition of human SNB75 cells; type: functional
LOX IMVI [34] = assay: Growth inhibition of human LOX IMVI cells; type: functional
MDA-MB-435 [35] = assay: Growth inhibition of human MDA-MB-435 cells; type: functional
MCF7 [36] = assay: Growth inhibition of human MCF7 cells; type: functional
BT-474 [37] = assay: Induction of ROS production in human BT-474 cells assessed as increase in intracellular ROS level incubated for 24 hrs by DCF-DA staining based assay; type: functional, cell-based; conditions: dose 0.25-1 µM
SR [38] = assay: Growth of human SR cells relative to control
K562 [39] = assay: Growth of human K562 cells relative to control
KM12 [40] = assay: Growth of human KM12 cells relative to control
MCF7 [41] = assay: Growth of human MCF7 cells relative to control
HT-29 [42] = assay: Growth of human HT-29 cells relative to control
SNB-75 [43] = assay: Growth of human SNB75 cells relative to control
HCT-116 [44] = assay: Growth of human HCT-116 cells relative to control
NCI-H460 [45] = assay: Growth of human NCI-H460 cells relative to control
LOX IMVI [46] = assay: Growth of human LOX IMVI cells relative to control
RPMI-8226 [47] = assay: Growth of human RPMI-8226 cells relative to control
MDA-MB-435 [48] = assay: Growth of human MDA-MB-435 cells relative to control
[49] = read-out: LC50 (the source's name)

Compound: c1ccc(-c2noc3ncnc(Nc4ccc(Oc5ccc6ccccc6c5)cc4)c23)cc1
- Activity [1]: Active

Compound: Clc1ccccc1Oc1ccc(Nc2ncnc3onc(-c4ccccc4)c23)cc1
- Activity [1]: Active

Compound: Clc1cccc(Nc2ncnc3onc(-c4ccccc4)c23)c1
- Activity [1]: Active

Compound: c1ccc(COc2ccc(Nc3ncnc4onc(-c5ccccc5)c34)cc2)cc1
- Activity [1]: Active

Compound: FC(F)(F)Oc1ccc(Oc2ccc(Nc3ncnc4onc(-c5ccccc5)c34)cc2)cc1
- Activity [1]: Active

Compound: COc1ccc(COc2ccc(Nc3ncnc4onc(-c5ccccc5)c34)cc2)cc1
- Activity [1]: Active

Compound: Fc1ccccc1Nc1ncnc2onc(-c3ccccc3)c12
- Activity [1]: Active

Compound: O=C(O)CNc1ncnc2onc(-c3ccccc3)c12
- Activity [1]: Active

Compound: Brc1ccc(Oc2ccc(Nc3ncnc4onc(-c5ccccc5)c34)cc2)cc1
- Activity [1]: Active

Compound: CCOC(=O)c1ccc(Oc2ccc(Nc3ncnc4onc(-c5ccccc5)c34)cc2)cc1
- Activity [1]: Active

Compound: Clc1ccc(COc2ccc(Nc3ncnc4onc(-c5ccccc5)c34)cc2)cc1
- Activity [1]: Active

Compound: Cc1ccc(COc2ccc(Nc3ncnc4onc(-c5ccccc5)c34)cc2)cc1
- Activity [1]: Active

Compound: c1ccc(-c2noc3ncnc(Nc4ccc(Oc5cccc6ccccc56)cc4)c23)cc1
- Activity [1]: Active

Compound: Cc1cc(C)cc(Oc2ccc(Nc3ncnc4onc(-c5ccccc5)c34)cc2)c1
- Activity [1]: Active

Compound: O=c1cc(Cc2ccc(Oc3ccc(Nc4ncnc5onc(-c6ccccc6)c45)cc3)cc2)c2ccccc2o1
- Activity [1]: Active

Compound: Fc1cccc(COc2ccc(Nc3ncnc4onc(-c5ccccc5)c34)cc2)c1
- IC50 (BT-474 [2]): 640 nM
- Activity (BT-474 [3]): Active
- Activity (BT-474 [4]): Active
- Activity (BT-474 [5]): Active
- Activity (BT-474 [6]): Active
- Activity (BT-474 [7]): Active
- Activity (BT-474 [8]): Active
- Activity (BT-474 [9]): Active
- Activity (BT-474 [10]): Active
- Activity (BT-474 [11]): Dose-Dependent Effect
- viability at 0.5 µM (BT-474 [12]): 64.9%
- Activity (BT-474 [13]): 27.1%
- Activity (BT-474 [14]): 6.9%
- Activity (BT-474 [15]): 1.06%
- viability at 1 µM (BT-474 [16]): 63.3%
- Activity (BT-474 [17]): 27.93%
- Activity (BT-474 [18]): 7.19%
- Activity (BT-474 [19]): 1.55%
- Activity (BT-474 [20]): 92.79%
- Activity (BT-474 [21]): 78.84%
- Activity (BT-474 [22]): 75.08%
- Activity (BT-474 [23]): 5.5%
- Activity (BT-474 [24]): 16.12%
- Activity (BT-474 [25]): 18.83%
- GI50 (K562 [26]): 95 nM
- TGI (K562 [26]): > 100 µM
- CC50 (K562 [26]; [49]): > 100 µM
- GI50 (RPMI-8226 [27]): 58 nM
- TGI (RPMI-8226 [27]): > 100 µM
- CC50 (RPMI-8226 [27]; [49]): > 100 µM
- GI50 (SR [28]): 67 nM
- TGI (SR [28]): > 100 µM
- CC50 (SR [28]; [49]): > 100 µM
- GI50 (NCI-H460 [29]): 50 nM
- TGI (NCI-H460 [29]): 28.4 µM
- CC50 (NCI-H460 [29]; [49]): > 100 µM
- GI50 (HCT-116 [30]): 58 nM
- TGI (HCT-116 [30]): > 100 µM
- CC50 (HCT-116 [30]; [49]): > 100 µM
- GI50 (HT-29 [31]): 53 nM
- TGI (HT-29 [31]): 11.6 µM
- CC50 (HT-29 [31]; [49]): > 100 µM
- GI50 (KM12 [32]): 80 nM
- TGI (KM12 [32]): 14.8 µM
- CC50 (KM12 [32]; [49]): > 100 µM
- GI50 (SNB-75 [33]): 26 nM
- TGI (SNB-75 [33]): 386 nM
- CC50 (SNB-75 [33]; [49]): > 100 µM
- GI50 (LOX IMVI [34]): 949 nM
- TGI (LOX IMVI [34]): > 100 µM
- CC50 (LOX IMVI [34]; [49]): > 100 µM
- GI50 (MDA-MB-435 [35]): 32 nM
- GI50 (MCF7 [36]): 37 nM
- TGI (MCF7 [36]): > 100 µM
- CC50 (MCF7 [36]; [49]): > 100 µM
- Activity [1]: Active
- Activity (BT-474 [37]): Dose-Dependent Effect
- growth, % of control (SR [38]): 26.06%
- growth, % of control (K562 [39]): 12.08%
- growth, % of control (KM12 [40]): 9.57%
- growth, % of control (MCF7 [41]): 14.05%
- growth, % of control (HT-29 [42]): 3.86%
- growth, % of control (SNB-75 [43]): -34.93%
- growth, % of control (HCT-116 [44]): 8.15%
- growth, % of control (NCI-H460 [45]): 2.61%
- growth, % of control (LOX IMVI [46]): 23.07%
- growth, % of control (RPMI-8226 [47]): 12.49%
- growth, % of control (MDA-MB-435 [48]): -54.67%

Compound: Clc1ccc(COc2ccc(Nc3ncnc4onc(-c5ccccc5)c34)cc2)c(Cl)c1
- Activity [1]: Active

Compound: c1ccc(-c2noc3ncnc(Nc4ccc(Oc5ccccc5-c5ccnc6ccccc56)cc4)c23)cc1
- Activity [1]: Active

Compound: COc1ccc(Nc2ncnc3onc(-c4ccccc4)c23)cc1
- Activity [1]: Active

Compound: c1ccc(-c2noc3ncnc(Nc4ccc(N5CCOCC5)cc4)c23)cc1
- Activity [1]: Active

Compound: Clc1cccc(COc2ccc(Nc3ncnc4onc(-c5ccccc5)c34)cc2)c1
- Activity [1]: Active

Compound: c1ccc(Oc2ccc(Nc3ncnc4onc(-c5ccccc5)c34)cc2)cc1
- Activity [1]: Active

Compound: Fc1ccc(Oc2ccc(Nc3ncnc4onc(-c5ccccc5)c34)cc2)cc1
- Activity [1]: Active

Compound: Fc1ccc(COc2ccc(Nc3ncnc4onc(-c5ccccc5)c34)cc2)cc1
- Activity [1]: Active

Compound: COc1cccc(COc2ccc(Nc3ncnc4onc(-c5ccccc5)c34)cc2)c1
- Activity [1]: Active

Compound: Brc1ccc(COc2ccc(Nc3ncnc4onc(-c5ccccc5)c34)cc2)cc1
- Activity [1]: Active

Compound: c1ccc(Nc2ncnc3onc(-c4ccccc4)c23)cc1
- Activity [1]: Active

Compound: Clc1ccc(Oc2ccc(Nc3ncnc4onc(-c5ccccc5)c34)cc2)c(Cl)c1
- Activity [1]: Active
